Assay: xn = mol fraction of the nth substance listed
Settings: 100 kPa

N[C@@H](Cc1c[nH]cn1)C(=O)O + CCCC[n+]1ccn(C)c1.F[B-](F)(F)F + O
viscosity [mPa·s]
Settings | 293.15 K | 298.15 K | 303.15 K | 308.15 K | 313.15 K | 318.15 K
x1 = 0.0002714, x2 = 0.0003602 | 1.038 | 0.925 | 0.843 | 0.759 | 0.701 | 0.646
x1 = 0.0002725, x2 = 0.0007201 | 1.07 | 0.959 | 0.876 | 0.797 | 0.744 | 0.689
x1 = 0.0002736, x2 = 0.00108 | 1.101 | 0.991 | 0.912 | 0.838 | 0.787 | 0.733
x1 = 0.0004522, x2 = 0.0003601 | 1.041 | 0.927 | 0.845 | 0.761 | 0.703 | 0.648
x1 = 0.000454, x2 = 0.00072 | 1.073 | 0.962 | 0.879 | 0.8 | 0.747 | 0.692
x1 = 0.0004559, x2 = 0.00108 | 1.104 | 0.994 | 0.915 | 0.841 | 0.79 | 0.736
x1 = 0.0006329, x2 = 0.00036 | 1.044 | 0.93 | 0.848 | 0.764 | 0.706 | 0.651
x1 = 0.0006355, x2 = 0.0007198 | 1.076 | 0.965 | 0.882 | 0.803 | 0.75 | 0.695
x1 = 0.0006382, x2 = 0.001079 | 1.107 | 0.997 | 0.918 | 0.844 | 0.793 | 0.739
x1 = 0.0008136, x2 = 0.00036 | 1.047 | 0.933 | 0.851 | 0.767 | 0.709 | 0.654
x1 = 0.000817, x2 = 0.0007197 | 1.079 | 0.968 | 0.885 | 0.806 | 0.753 | 0.698
x1 = 0.0008203, x2 = 0.001079 | 1.11 | 1 | 0.921 | 0.847 | 0.796 | 0.742
x1 = 0.0009942, x2 = 0.0003599 | 1.05 | 0.936 | 0.854 | 0.77 | 0.712 | 0.657
x1 = 0.0009983, x2 = 0.0007196 | 1.082 | 0.971 | 0.888 | 0.809 | 0.755 | 0.7
x1 = 0.001002, x2 = 0.001079 | 1.113 | 1.003 | 0.924 | 0.849 | 0.799 | 0.745
x1 = 0.001175, x2 = 0.0003598 | 1.053 | 0.939 | 0.856 | 0.772 | 0.714 | 0.659
x1 = 0.00118, x2 = 0.0007194 | 1.085 | 0.974 | 0.89 | 0.811 | 0.758 | 0.703
x1 = 0.001185, x2 = 0.001079 | 1.116 | 1.006 | 0.927 | 0.852 | 0.802 | 0.748
x1 = 0.001355, x2 = 0.0003598 | 1.056 | 0.942 | 0.859 | 0.775 | 0.716 | 0.661
x1 = 0.001361, x2 = 0.0007193 | 1.088 | 0.976 | 0.893 | 0.814 | 0.76 | 0.705
x1 = 0.001366, x2 = 0.001079 | 1.119 | 1.008 | 0.929 | 0.855 | 0.804 | 0.75
x1 = 0.001536, x2 = 0.0003597 | 1.059 | 0.944 | 0.862 | 0.777 | 0.719 | 0.663
x1 = 0.001542, x2 = 0.0007192 | 1.091 | 0.979 | 0.896 | 0.816 | 0.763 | 0.707
x1 = 0.001548, x2 = 0.001078 | 1.122 | 1.011 | 0.932 | 0.857 | 0.806 | 0.752
x1 = 0.001716, x2 = 0.0003596 | 1.062 | 0.947 | 0.864 | 0.779 | 0.721 | 0.666
x1 = 0.001723, x2 = 0.000719 | 1.094 | 0.982 | 0.898 | 0.818 | 0.765 | 0.71
x1 = 0.00173, x2 = 0.001078 | 1.125 | 1.014 | 0.934 | 0.86 | 0.808 | 0.753

— the CheMixHub ionic liquid set
